Experimental data: ChEMBL document CHEMBL5325509, “Pyrrolidinedione-thiazolidinone hybrid molecules with potent cytotoxic effect in squamous cell carcinoma SCC-15 cells” (Bioorg Med Chem, 2023)
Activity calls are given as the source filed them. The calls are words filed in the database; no cut-off is given here.

Assays:
SCC-15 [1] = test: Induction of intracellular ROS generation in human SCC-15 cells at 50 to 100 uM incubated for 24 hrs by DCFH-DA staining based immunofluorescence analysis; assay type: functional; conditions: dose 50-100 µM
SCC-15 [2] = test: Cytotoxicity against human SCC-15 cells assessed as decrease in cellular metabolic activity at 50 uM incubated for 48 hrs by resazurin reduction assay relative to control; assay type: functional; set-up: scale not given: the % may be the effect or the level left
SCC-15 [3] = test: Induction of intracellular ROS generation in human SCC-15 cells at 0.001 to 10 uM incubated for 24 to 48 hrs by DCFH-DA staining based immunofluorescence analysis; assay type: functional, cell-based; conditions: dose 0.001-10 µM, time 24-48 hrs
SCC-15 [4] = test: Cytotoxicity against human SCC-15 cells assessed as LDH release at 100 uM incubated for 48 hrs relative to control; assay type: functional
SCC-15 [5] = test: Cytotoxicity against human SCC-15 cells assessed as LDH release at 50 uM incubated for 48 hrs relative to control; assay type: functional
[6] = Cytotoxicity against human Cervical carcinoma cell assessed as inhibition of cell growth measured at 72 hrs; assay type: functional, cell-based
SCC-15 [7] = test: Cytotoxicity against human SCC-15 cells assessed as LDH release incubated for 48 hrs; assay type: functional, cell-based; conditions: SCC-15, 48 h
SCC-15 [8] = test: Cytotoxicity against human SCC-15 cells assessed as decrease in cellular metabolic activity at 50 uM incubated for 24 hrs by resazurin reduction assay relative to control; assay type: functional; set-up: scale not given: the % may be the effect or the level left
SCC-15 [9] = test: Cytotoxicity against human SCC-15 cells assessed as LDH release incubated for 24 hrs; assay type: functional, cell-based; conditions: SCC-15, 24 h
[10] = Cytotoxicity against human HaCaT cells assessed reduction in cellular metabolic activity incubated for 72 hrs by MTT assay; assay type: toxicity, cell-based
[11] = Upregulation of PCNA expression in PPARgamma-silenced human SCC-15 cells at 1 uM incubated for 48 hrs Western blot analysis relative to siRNA control; assay type: functional
[12] = Cytotoxicity against human HaCaT cells assessed reduction in cellular metabolic activity incubated for 24 to 72 hrs by MTT assay; assay type: toxicity, cell-based
[13] = Upregulation of Caspase-3 activity in human SCC-15 cells at 100 uM measured after 24 hrs in presence of Ac-DEVD-AMC by fluorescence microplate reader analysis; assay type: functional
SCC-15 [14] = test: Cytotoxicity against human SCC-15 cells assessed as decrease in cellular metabolic activity at 100 uM incubated for 48 hrs by resazurin reduction assay relative to control; assay type: functional; set-up: scale not given: the % may be the effect or the level left
Glioblastoma cell line = test: Cytotoxicity against human Glioblastoma cell line assessed as inhibition of cell growth measured at 72 hrs; assay type: functional, cell-based
SCC-15 [15] = test: Induction of intracellular ROS generation in human SCC-15 cells at 0.001 to 100 uM by DCFH-DA staining based immunofluorescence analysis; assay type: functional, cell-based; conditions: dose 0.001-100 µM, time 24-48 hrs, TDE = time-dependent effect
[16] = Downregulation of AHR mRNA expression in human SCC-15 cells at 1 uM measured after 24 hrs by RT-PCR analysis (reference value: 17.30 %); assay type: functional
[17] = Downregulation of AHR expression in PPARgamma-silenced human SCC-15 cells at 1 uM incubated for 48 hrs Western blot analysis relative to SiRNA control; assay type: functional
[18] = Downregulation of PPARgamma mRNA expression in PPARgamma-silenced human SCC-15 cells at 1 uM measured after 24 hrs by RT-PCR analysis; assay type: functional
[19] = Downregulation of NRFL2 mRNA expression in human SCC-15 cells at 1 uM measured after 24 hrs by RT-PCR analysis (reference value: 18.36 %); assay type: functional
[20] = Upregulation of AHR expression in PPARgamma-silenced human SCC-15 cells at 1 uM incubated for 48 hrs Western blot analysis relative to control; assay type: functional
SCC-15 [21] = test: Cytotoxicity against human SCC-15 cells assessed as LDH release at 100 uM incubated for 24 hrs relative to control; assay type: functional
SCC-15 [22] = test: Cytotoxicity against human SCC-15 cells assessed as decrease in cellular metabolic activity incubated for 24 hrs by resazurin reduction assay; assay type: functional, cell-based; conditions: SCC-15, 24 h
SCC-15 [23] = test: Cytotoxicity against human SCC-15 cells assessed as decrease in cellular metabolic activity incubated for 48 hrs by resazurin reduction assay; assay type: functional, cell-based; conditions: SCC-15, 48 h
SCC-15 [24] = test: Induction of intracellular ROS generation in human SCC-15 cells at 50 to 100 uM incubated for 48 hrs by DCFH-DA staining based immunofluorescence analysis; assay type: functional; conditions: dose 50-100 µM
[25] = Downregulation of PPARgamma mRNA expression in human SCC-15 cells at 1 uM measured after 24 hrs by RT-PCR analysis (reference value: 79.68 %); assay type: functional
[26] = Upregulation of Ki67 expression in PPARgamma-silenced human SCC-15 cells at 1 uM incubated for 48 hrs Western blot analysis relative to siRNA control; assay type: functional
SCC-15 [27] = test: Induction of intracellular ROS generation in human SCC-15 cells incubated for 24 to 48 hrs by DCFH-DA staining based immunofluorescence analysis; assay type: functional, cell-based; conditions: dose 0.001-100 µM, time 24-48 hrs
[28] = Upregulation of NRFL2 mRNA expression in PPARgamma knockdown human SCC-15 cells at 1 uM measured after 24 hrs by RT-PCR analysis; assay type: functional
Breast carcinoma cell = test: Cytotoxicity against human Breast carcinoma cell assessed as inhibition of cell growth measured at 72 hrs; assay type: functional, cell-based
[29] = Cytotoxicity against mouse BALB/3T3 cells assessed reduction in cellular metabolic activity incubated for 24 to 72 hrs by MTT assay; assay type: toxicity, cell-based
[30] = Upregulation of PPARgamma expression in PPARgamma-silenced human SCC-15 cells at 1 uM incubated for 48 hrs Western blot analysis relative to control; assay type: functional
Lung cancer cell line = test: Cytotoxicity against human Lung cancer cell line assessed as inhibition of cell growth measured at 72 hrs; assay type: functional, cell-based
SCC-15 [31] = test: Cytotoxicity against human SCC-15 cells assessed as decrease in cellular metabolic activity at 10 uM incubated for 24 hrs by resazurin reduction assay relative to control; assay type: functional; set-up: scale not given: the % may be the effect or the level left
Leukemic tumor cell line = test: Cytotoxicity against human Leukemic tumor cell line assessed as inhibition of cell growth measured at 72 hrs; assay type: functional, cell-based
HaCaT = test: Cytotoxicity against human HaCaT cells assessed reduction in cellular metabolic activity at 0.1 to 100 uM incubated for 24 to 72 hrs by MTT assay; assay type: toxicity, cell-based; conditions: dose lower 0.1 µM, time lower 24 hrs, dose upper 100 µM, time upper 72 hrs
[32] = Downregulation of PCNA expression in PPARgamma-silenced human SCC-15 cells at 1 uM incubated for 48 hrs Western blot analysis relative to control; assay type: functional
[33] = Upregulation of PPARgamma expression in human SCC-15 cells at 1 uM incubated for 48 hrs Western blot analysis relative to control; assay type: functional
Colon carcinoma cell = test: Cytotoxicity against human Colon carcinoma cell assessed as inhibition of cell growth measured at 72 hrs; assay type: functional, cell-based
[34] = Upregulation of AHR mRNA expression in PPARgamma knockdown human SCC-15 cells at 1 uM measured after 24 hrs by RT-PCR analysis; assay type: functional
SCC-15 [35] = test: Cytotoxicity against human SCC-15 cells assessed as LDH release at 10 uM incubated for 24 hrs relative to control; assay type: functional
[36] = Upregulation of Caspase-3 activity in human SCC-15 cells at 100 uM measured after 48 hrs in presence of Ac-DEVD-AMC by fluorescence microplate reader analysis; assay type: functional
BALB/3T3 = test: Cytotoxicity against mouse BALB/3T3 cells assessed reduction in cellular metabolic activity at 0.1 to 100 uM incubated for 24 to 72 hrs by MTT assay; assay type: toxicity, cell-based; conditions: balb/3t3, 100 µM, dose lower 0.1 µM, time lower 24 hrs, dose upper 100 µM, time upper 72 hrs
SCC-15 [37] = test: Cytotoxicity against human SCC-15 cells assessed as LDH release at 50 uM incubated for 24 hrs relative to control; assay type: functional
SCC-15 [38] = test: Cytotoxicity against human SCC-15 cells assessed as decrease in cellular metabolic activity at 10 uM incubated for 48 hrs by resazurin reduction assay relative to control; assay type: functional; set-up: scale not given: the % may be the effect or the level left
SCC-15 [39] = test: Cytotoxicity against human SCC-15 cells assessed as decrease in cellular metabolic activity at 100 uM incubated for 24 hrs by resazurin reduction assay relative to control; assay type: functional; set-up: scale not given: the % may be the effect or the level left
[40] = Upregulation of Ki67 expression in human SCC-15 cells at 1 uM incubated for 48 hrs Western blot analysis relative to control; assay type: functional
[41] = Upregulation of AHR mRNA expression in PPARgamma-silenced human SCC-15 cells at 1 uM measured after 24 hrs by RT-PCR analysis; assay type: functional

With `O=C1CC(N2C(=O)/C(=C/C(Cl)=C/c3ccc([N+](=O)[O-])cc3)SC2=S)C(=O)N1c1ccc(O)cc1` (stereo not drawn) the Activity (SCC-15 [1]) was 11.01%, the Activity (SCC-15 [2]) was 82.23% and the Activity (SCC-15 [3]) was “inactive”. It also gave an Activity (SCC-15 [4]) of 90.92%, an Activity (SCC-15 [5]) of 150.7% and an IC50 [6] of 1 µM. The EC50 (SCC-15 [7]) was 32.8 µM, the Activity (SCC-15 [8]) was 77% and the EC50 (SCC-15 [9]) was 24.9 µM. The IC50 at 72 h [10] was 73.6 µM, the Activity [11] was 23.6% and the IC50 [12] was > 100 µM. It also gave an Activity [13] of 74.97%, an Activity (SCC-15 [14]) of 83.18% and an IC50 (Glioblastoma cell line) of 1 µM. The Activity (SCC-15 [15]) was “Tde”, the Activity [16] was 34.9% and the Activity [17] was 32.59%. The Activity [18] was 60.85%, the Activity [19] was 13.77% and the Activity [20] was 4.74%. For the same molecule, the Activity (SCC-15 [21]) was 115.3%, the IC50 (SCC-15 [22]) was 17.7 µM and the IC50 (SCC-15 [23]) was 6.72 µM. The Activity (SCC-15 [24]) was 23.37%, the Activity [25] was 21.32% and the Activity [26] was 41.15%. For the same molecule, the Activity (SCC-15 [27]) was “Dose-Dependent Effect”, the Activity [28] was 5.73% and the IC50 (Breast carcinoma cell) was 1 µM. For the same molecule, the IC50 [29] was > 100 µM, the Activity [30] was 19.96% and the IC50 (Lung cancer cell line) was 1 µM. For the same molecule, the Activity (SCC-15 [31]) was 43.58%, the IC50 (Leukemic tumor cell line) was 1 µM and the Activity (HaCaT) was “Non-Toxic”. The Activity [32] was 66.68%, the Activity [33] was 18.58% and the IC50 (Colon carcinoma cell) was 1 µM. It also gave an Activity [34] of 15.99%, an Activity (SCC-15 [35]) of 16.8% and an Activity [36] of 62.85%. For the same molecule, the Activity (BALB/3T3) was “Non-Toxic”, the Activity (SCC-15 [37]) was 106.2% and the Activity (SCC-15 [38]) was 69.88%. It also gave an Activity (SCC-15 [39]) of 79.14%, an Activity [40] of 28.61% and an Activity [41] of 33.59%.
